Data from patent US20110136877A1, “2-PHENYL PHENOXYACETIC ACIDS USEFUL FOR TREATING INFLAMMATORY DISORDERS” (LIGAND PHARMACEUTICALS INC., priority 2008, published 2011).

target: T1, human CRTH2 (Homo sapiens, UniProt Q9Y5Y4); assay: [35S]GTPγS binding assay (SPA); format: biochemical; details: not given
T1 construct: expressed in transfected cells; membranes used
T1 sequence (Q9Y5Y4 1-395): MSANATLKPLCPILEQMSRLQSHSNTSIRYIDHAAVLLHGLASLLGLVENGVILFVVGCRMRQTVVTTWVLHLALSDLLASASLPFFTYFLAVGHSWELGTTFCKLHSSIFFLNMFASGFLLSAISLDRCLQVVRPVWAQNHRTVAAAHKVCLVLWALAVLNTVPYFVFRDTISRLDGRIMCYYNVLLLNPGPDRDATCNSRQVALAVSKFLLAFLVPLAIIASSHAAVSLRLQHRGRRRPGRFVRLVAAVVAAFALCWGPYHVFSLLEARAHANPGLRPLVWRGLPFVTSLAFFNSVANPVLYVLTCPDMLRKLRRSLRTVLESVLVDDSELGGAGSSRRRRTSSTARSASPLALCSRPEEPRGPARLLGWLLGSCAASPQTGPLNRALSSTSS
Method: [^35S]GTPγS Binding Assay
SPA [^35S]GTPγS binding was performed on membranes from CHO-K1 cells stably expressing human CRTH2. To a white, clear-bottomed 384-well plate, 4 μg membrane protein was incubated in the binding buffer (20 mM HEPES, pH 7.4, 10 mM MgCl2, 300 mM NaCl, 0.2% BSA) with 60 nM DHK-PGD2, 500 pM [^35S]GTPγS, 10 μM GDP, and 100 μg wheat germ agglutinin-coupled SPA beads (GE Healthcare) with and without increasing concentrations of compounds. The final assay volume was 40 μL and contained 1% DMSO. Samples were incubated for 2 h at ambient temperature. Plates were centrifuged 5 min at 1500 rpm. Plates were read after an additional 4 h using the Trilux 1450 Microbeta (PerkinElmer) with a 30 sec/well reading time.

| Compound | IC50 [nM] |
| --- | --- |
| CN(Cc1cccc(-c2cc(C(F)(F)F)ccc2OCC(=O)O)c1)C(=O)Oc1ccccc1 [Compound 24, {[3′-{[methyl(phenoxycarbonyl)amino]methyl}-5-(trifluoromethyl)biphenyl-2-yl]oxy}acetic acid] | 100 to 1000 |

same assay, conditions: membranes from CHO-K1 cells stably expressing human CRTH2; 60 nM DHK-PGD2; read-out: CRTH2 GTPγS assay IC50

| Compound | IC50 [nM] |
| --- | --- |
| CCCCNC(=O)CN(Cc1cccc(-c2ccccc2OCC(=O)O)c1)C(=O)Cc1ccccc1 [Compound 13, {[3′-{[[2-(butylamino)-2-oxoethyl](phenylacetyl)amino]methyl}-biphenyl-2-yl]oxy}acetic acid] | < 100 |
| CN(Cc1cccc(-c2cc(C(F)(F)F)ccc2OCC(=O)O)c1)C(=O)c1ccccc1 [Compound 23, {[3′-{[methyl(phenylcarbonyl)amino]methyl}-5-(trifluoromethyl)biphenyl-2-yl]oxy}acetic acid] | 100 to 1000 |
| CCCCOC(=O)N(C)Cc1cccc(-c2cc(C(F)(F)F)ccc2OCC(=O)O)c1 [Compound 18, {[3′-{[(butoxycarbonyl)(methyl)amino]methyl}-5-(trifluoromethyl)biphenyl-2-yl]oxy}acetic acid] | < 100 |
| CCCCNC(=O)N(C)Cc1cccc(-c2cc(C(F)(F)F)ccc2OCC(=O)O)c1 [Compound 30, {[3′-{[(butylaminocarbonyl)(methyl)amino]methyl}-5-(trifluoromethyl)biphenyl-2-yl]oxy}acetic acid] | < 100 |
| CCCCNC(=O)CN(Cc1cccc(-c2cc(C(F)(F)F)ccc2OCC(=O)O)c1)C(=O)OCCCC [Compound 9, {[3′-({(butoxy carbonyl)[2-(butylamino)-2-oxoethyl]amino}methyl)-5-(trifluoromethyl)biphenyl-2-yl]oxy}acetic acid] | < 100 |
| CCCCNC(=O)CN(Cc1cccc(-c2ccccc2OCC(=O)O)c1)C(=O)OCCCC [Compound 6, {[3′-({(butoxy carbonyl)[2-(butylamino)-2-oxoethyl]amino}methyl)biphenyl-2-yl]oxy}acetic acid] | < 100 |
| CN(Cc1cccc(-c2cc(C(F)(F)F)ccc2OCC(=O)O)c1)C(=O)c1cccnc1 [Compound 32, {[3′-{[methyl(pyridine-3-ylcarbonyl)amino]methyl}-5-(trifluoromethyl)biphenyl-2-yl]oxy}acetic acid] | < 100 |
| CN(Cc1cccc(-c2cc(C(F)(F)F)ccc2OCC(=O)O)c1)C(=O)Nc1cccnc1 [Compound 29] | 100 to 1000 |
| CCCCOC(=O)N(CCCC)Cc1cccc(-c2cc(C(F)(F)F)ccc2OCC(=O)O)c1 [Compound 19, {[3′-{[(butoxycarbonyl)(butyl)amino]methyl}-5-(trifluoromethyl)biphenyl-2-yl]oxy}acetic acid] | < 100 |
| CCCCOC(=O)N(Cc1cccc(-c2cc(C(F)(F)F)ccc2OCC(=O)O)c1)Cc1nccs1 [Compound 27, {[3′-{[(butoxycarbonyl)(1,3-thiazol-2-ylmethyl)amino]methyl}-5-(trifluoromethyl)biphenyl-2-yl]oxy}acetic acid] | < 100 |
| CN(Cc1cccc(-c2cc(C(F)(F)F)ccc2OCC(=O)O)c1)S(=O)(=O)c1cccnc1 [Compound 34, {[3′-{[(pyridine-3-ylsulfonyl)(methyl)amino]methyl}-5-(trifluoromethyl)biphenyl-2-yl]oxy}acetic acid] | 100 to 1000 |
| CCCCOC(=O)N(Cc1cccc(-c2cc(C(F)(F)F)ccc2OCC(=O)O)c1)c1ccccc1 [Compound 25, {[3′-{[(butoxycarbonyl)(phenyl)amino]methyl}-5-(trifluoromethyl)biphenyl-2-yl]oxy}acetic acid] | 100 to 1000 |
| CNC(=O)CN(Cc1cccc(-c2cc(C(F)(F)F)ccc2OCC(=O)O)c1)C(C)=O [Compound 21, {[3′-({(acetyl)[2-(methylamino)-2-oxoethyl]amino}methyl)-5-(trifluoromethyl)biphenyl-2-yl]oxy}acetic acid] | 100 to 1000 |
| CCCCNC(=O)CN(Cc1cccc(-c2cc(Cl)ccc2OCC(=O)O)c1)C(=O)OCCCC [Compound 11, {[3′-({(butoxy carbonyl)[2-(butylamino)-2-oxoethyl]amino}methyl)-5-chlorobiphenyl-2-yl]oxy}acetic acid] | < 100 |
| CCCCNC(=O)CN(CCc1ccc(-c2ccccc2OCC(=O)O)cc1)C(=O)OCCCC [Compound 36, {[4′-({(butoxy carbonyl)[2-(butylamino)-2-oxoethyl]amino}ethyl)biphenyl-2-yl]oxy}acetic acid] | < 100 |
| CCCCOC(=O)N(CC(=O)NC)Cc1cccc(-c2cc(C(F)(F)F)ccc2OCC(=O)O)c1 [Compound 20, {[3′-({(butoxycarbonyl) [2-(methylamino)-2-oxoethyl]amino}methyl)-5-(trifluoromethyl)biphenyl-2-yl]oxy}acetic acid] | < 100 |
| CN(Cc1cccc(-c2cc(C(F)(F)F)ccc2OCC(=O)O)c1)S(=O)(=O)c1ccccc1 [Compound 33, {[3′-{[(benzensulfonyl)(methyl)amino]methyl}-5-(trifluoromethyl)biphenyl-2-yl]oxy}acetic acid] | 100 to 1000 |
| CC(=O)N(Cc1cccc(-c2cc(C(F)(F)F)ccc2OCC(=O)O)c1)c1ccccc1 [Compound 22, {[3′-{[acetyl(phenyl)amino]methyl}-5-(trifluoromethyl)biphenyl-2-yl]oxy}acetic acid] | 100 to 1000 |
| CCCCNC(=O)CN(Cc1cccc(-c2cc(F)ccc2OCC(=O)O)c1)C(=O)OCCCC [Compound 7, {[3′-({(butoxy carbonyl)[2-(butylamino)-2-oxoethyl]amino}methyl)-5-fluorobiphenyl-2-yl]oxy}acetic acid] | < 100 |
| CN(Cc1cccc(-c2cc(C(F)(F)F)ccc2OCC(=O)O)c1)C(=O)Nc1ccccc1 [Compound 28, {[3′-{[(anilinocarbonyl)(methyl)amino]methyl}-5-(trifluoromethyl)biphenyl-2-yl]oxy}acetic acid] | 100 to 1000 |
| CCCCNC(=O)CN(Cc1cccc(-c2cc(C)ccc2OCC(=O)O)c1)C(=O)OCCCC [Compound 8, {[3′-({(butoxy carbonyl)[2-(butylamino)-2-oxoethyl]amino}methyl)-5-methylbiphenyl-2-yl]oxy}acetic acid] | < 100 |
